Here are results for 1 molecule from patent US20120065614A1 (UNIVERSITY OF NORTH TEXAS, priority 2010, published 2012).

SMILES strings stand for the structures. Like-named read-outs stand apart in the source and are kept apart here.

A short description of series [1]: Steady-state photoluminescence spectra (emission/excitation maxima). The format is physicochemical. As for the experimental part:
(§1) Photoluminescence characterization: All photoluminescence studies were carried with the PTI spectrofluorometer described below. For titrations, 2.5-mL aliquots were placed in the quartz cuvette and 0.1 mL of gel was added at every titration point with magnetic stirring. Titration data were plotted as I/Io vs. volume of gel added (where I=intensity of sample after addition of gel and 1o=intensity of pure aqueous gold phosphor solution). Lifetime data were analyzed using a xenon flash lamp or N2 laser systems for both the sample and a scatterer solution used to generate the instrument response function (IRF) used for deconvolution.
Spectroscopic equipment: Steady-state luminescence spectra were acquired with a PTI QuantaMaster Model QM-4 scanning spectrofluorometer equipped with a 75-watt xenon lamp. The UVN is absorption spectra were measured at 1-nm resolution on either a diode array spectrometer (Hewlett-Packard, model 8543) or a Perkin-Elmer Lambda-900 double-beam UVN is/NIR absorption spectrophotometer.

Series [2] is described as follows: Time-resolved phosphorescence lifetime. The class given is physicochemical. As for the experimental part: as §1
The conditions of series [3]: cited from earlier work; for emission band maximum: literature.
For series [4] the following is noted: solution, literature results, fitting error not given; cited from earlier work.
The conditions of series [5]: cited from earlier work.

`O=S(=O)([O-])c1cccc([PH](c2cccc(S(=O)(=O)[O-])c2)(c2cccc(S(=O)(=O)[O-])c2)[Au]([PH](c2cccc(S(=O)(=O)[O-])c2)(c2cccc(S(=O)(=O)[O-])c2)c2cccc(S(=O)(=O)[O-])c2)[PH](c2cccc(S(=O)(=O)[O-])c2)(c2cccc(S(=O)(=O)[O-])c2)c2cccc(S(=O)(=O)[O-])c2)c1` [Na8[Au(TPPTS)3], tris[tris(3,3′,3″-trisulfonatophenyl)phosphine]aurate(I)]: the excitation maximum in series [1] (aqueous solution of 0.001M) came out at 292 nm; in series [1] (solid state) it was 356 nm. Besides, the emission maximum in series [1] (solid state) is given as 500 nm. Moreover, the “PL, soln. (RT), emission, corrected” value in series [1] (solution, RT, Corr.) was “nm exc.; 525 nm em”. In series [1] (solution, RT, Corr.), the “PL, soln. (RT), excitation, corrected” value is reported as 285 nm. Also, the “PL, soln. (RT), emission, uncorrected” value in series [1] (solution, RT, Uncorr.) came to 510 nm. Further, the “PL, soln. (RT), excitation, uncorrected” value in series [1] (solution, RT, Uncorr.) is given as “Uncorr.: 296 nm exc.;”. Also, the phosphorescence lifetime in series [2] (after addition of PNIPAM hydrogels to the aqueous solution) is recorded as 2.6 μs; in series [2] (aqueous solution before addition of PNIPAM hydrogels), 1.4 μs. The “τ, soln. (RT)” value in series [2] (aqueous solution, RT) is given as 2.04 ± 0.02 μs (FIGS; in series [4] it was 1.9 μs (fitting error not given). Further, the figures for the emission band maximum in series [3] (solid state at 77° K) and in series [3] (solid state at room temperature) were 486 nm and 494 nm, respectively. For the same molecule, the “PL, soln. (RT), emission” value in series [3] (solution, RT, literature results (broad)) is given as 513 nm. For the same molecule, the “PL, soln. (RT), excitation” value in series [3] (solution, RT, literature results) is reported as 293 nm. For the same molecule, in series [5], the water solubility result is “highly water soluble”.
